Laboratory results published in PubChem BioAssay AID624404 (Broad Institute, 2012).
Records with an inconclusive call do not appear.

tested on: D54 LucT luciferase reporter counterscreen, luminescence, 24 h; assay: reporter signal increase, D54 LucT cells – cell-based, luminescence, cherry pick, counter-screen for N-linked glycosylation inhibitor project, dose response (AID 624404)

| SMILES | AC35 [µM] |
| --- | --- |
| COc1cc(NC(=O)c2ccc(-c3c(C)noc3C)c3ccoc23)cc(OC)c1OC | 0.0582 |
| COc1ccc(-c2oc3cc(O)c(OC)c(O)c3c(=O)c2OC)cc1O | 0.909 |
| COc1cccc(/C=N/NC(=O)c2ccc(N3CCCC3=O)cc2)c1 | 0.733 |
| O=C1NC(=O)N(Cc2ccco2)C(=O)/C1=C/C=C/c1ccco1 | 12.3 |
| CCc1ccc(C(=O)Nc2ccc3c(c2)n(C)c(=O)n3C)cc1 | 2.63 |
| CCc1ccc(C2c3[nH]c4ccccc4c3CCN2C(=O)c2ccc(=O)n(C)n2)cc1 (stereo not drawn) | 1.24 |
| COCCCNC(=O)c1ccc(-c2c(C)noc2C)c2ccoc12 | 2.33 |
| Cc1ccc(S(=O)(=O)NC2=C(N3CCN(Cc4ccccc4)CC3)C(=O)c3ccccc3C2=O)cc1 | 2.54 |
| C[C@@]12C(=O)Nc3ccc(F)cc3C(=O)N1[C@H]1c3cc(Cl)ccc3OC[C@@H]1[C@@H]2c1ccccc1 | 1.82 |
| CCCNc1nc2ccccc2n2c(C)nnc12 | 0.0191 |
| NNC(=O)c1oc2nc(-c3cccs3)cc(-c3ccco3)c2c1N | 2.93 |
| CCN1C(=O)CCN(C2CCCC2)c2nc(Nc3ccc(C(=O)NC4CCN(C)CC4)cc3OC)ncc21 | 0.226 |
| Cc1cc(=O)oc2cc(OCC(=O)N3c4ccccc4CC3C)ccc12 (stereo not drawn) | 1.37 |
| COCCNC(=O)c1cc(-c2ccccc2OC)on1 | 3.84 |
| CCc1ccc(N2C(=O)NC(=O)/C(=C\C=C\c3ccco3)C2=O)cc1 | 1.74 |
| O=C(Nc1ccccc1N1CCOCC1)c1ccc2nc[nH]c2c1 | 0.852 |
| COc1ccc(NC(=O)C2(C)Cc3c(-c4cccc(C(N)=O)c4)ccnc3O2)cc1 (stereo not drawn) | 3.62 |
| COc1cc(OC)cc(C(=O)NCC(=O)Nc2ccc(-c3ccccc3)cc2)c1 | 0.501 |
| O=C(CCl)Nc1cccc(S(=O)(=O)NC2=NCCC2)c1 | 1.62 |

| SMILES | AC35 [µM] |
| --- | --- |
| Cc1cc(NCCCn2ccnc2)n2nc(C)c(-c3ccccc3)c2n1 | 2.29 |
| COc1ccc(/C=N/NC(=O)c2ccccc2OCc2ccccc2)c(OC)c1 | 1.6 |
| COc1ccc(CC(=O)N(Cc2ccccc2)c2ccc(C)cc2)cc1S(=O)(=O)N1CCOCC1 | 2.5 |
| COc1cc(C(=O)NC2CCN(C)CC2)ccc1Nc1ncc2c(n1)N(CCc1ccccc1)CCC(=O)N2C | 0.172 |
| Cc1ccc(S(=O)(=O)[N-]c2nc3ccccc3nc2-n2cc[n+](Cc3ccccc3)c2)cc1 | 0.0339 |
| CCOC(=O)c1sc(Nc2nc(C)cc(C)n2)nc1C | 1.07 |
| CCN(CC)c1ccc(/C=N/n2nnnc2N)c(O)c1 | 0.336 |
| Cn1c(SCC(=O)c2ccccc2)ncc(C(=O)Nc2ccccc2)c1=O | 0.382 |
| C[C@@]12C(=O)Nc3cc(F)c(F)cc3C(=O)N1[C@H]1c3cc(Cl)ccc3OC[C@@H]1[C@@H]2c1ccccc1 | 1.6 |
| C=CCn1c(SCc2c(C)noc2C)nc2sc3c(c2c1=O)CCC(C)C3 (stereo not drawn) | 0.238 |
| COc1ccc2[nH]c(C(=O)N/N=C/c3ccccc3OC)cc2c1 | 1.17 |
| CCN(CC)S(=O)(=O)c1ccc(N2CCOCC2)c(NC(=O)c2[nH]c(C)c(C(C)=O)c2C)c1 | 0.33 |
| O=C(/C=C/Sc1ccccc1)c1ccc(Cl)cc1 | 0.37 |
| NS(=O)(=O)c1ccc(NC(=O)c2cccc3cc4ccccc4nc23)cc1 | 6.58 |
| CCN(CC)c1ccc(/C=N/NC(=O)c2cnccn2)cc1 | 0.0537 |
| C(=C\c1nccc2c1[nH]c1ccccc12)/c1ccccc1 | 0.00701 |
| COc1ccc(CNCC(=O)Nc2ccccc2-n2cccc2)cc1 | 0.0629 |
| Cc1cccc(CCNC(=O)CCCOc2cc(=O)n(C)c3ccccc23)c1 | 0.321 |
| CCOC(=O)Nc1nc2ccc(Cn3cccc3)cc2[nH]1 | 0.115 |
